Test results reported in patent US20260365628A1, “SUBSTITUTED 3,4-DIHYDROQUINOLINONE INHIBITORS OF TSHR” (Septerna, Inc., priority 2022, published 2026).

These molecules were tested against T1, hTSHR (Homo sapiens, UniProt P16473) (assay: hTSHR TR-FRET cAMP Assay (inhibition of M22-stimulated cAMP production)). Settings: Expi293F Inducible cells stably expressing hTSHR; cAMP HTRF; stimulated with EC80 of anti-TSHR antibody M22; 15 min compound preincubation, 30 min at 37° C.; read-out: Activity (IC50 bins).
T1 construct: expressed in transfected cells
T1 sequence (P16473 21-764): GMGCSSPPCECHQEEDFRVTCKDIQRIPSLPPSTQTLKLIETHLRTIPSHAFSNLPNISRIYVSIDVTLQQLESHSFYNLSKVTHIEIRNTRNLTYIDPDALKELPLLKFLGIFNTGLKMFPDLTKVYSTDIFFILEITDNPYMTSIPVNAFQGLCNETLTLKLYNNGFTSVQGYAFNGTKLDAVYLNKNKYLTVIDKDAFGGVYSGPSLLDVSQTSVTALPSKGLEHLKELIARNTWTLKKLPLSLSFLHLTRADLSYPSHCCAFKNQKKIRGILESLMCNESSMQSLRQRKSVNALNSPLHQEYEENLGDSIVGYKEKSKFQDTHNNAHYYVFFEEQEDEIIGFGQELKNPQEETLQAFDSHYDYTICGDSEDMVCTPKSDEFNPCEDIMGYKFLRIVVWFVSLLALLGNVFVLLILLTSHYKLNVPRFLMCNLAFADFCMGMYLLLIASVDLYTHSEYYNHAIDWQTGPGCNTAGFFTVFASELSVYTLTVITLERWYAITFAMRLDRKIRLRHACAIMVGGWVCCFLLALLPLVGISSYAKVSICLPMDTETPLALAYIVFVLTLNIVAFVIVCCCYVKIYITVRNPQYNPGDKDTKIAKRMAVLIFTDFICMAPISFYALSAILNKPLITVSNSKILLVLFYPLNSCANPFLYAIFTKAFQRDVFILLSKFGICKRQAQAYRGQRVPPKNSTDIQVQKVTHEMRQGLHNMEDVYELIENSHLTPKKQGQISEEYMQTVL
Type: cell-based
Summary of the method: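 Readout was a cAMP HTRF ratio of 655/620 nm after lysis, scaled between the EC80 M22 signal (0% inhibition) and no-agonist vehicle (100%). Frozen induced Expi293F-hTSHR cells saw test compounds (0.5% DMSO) for 15 min at 37 °C before 30 min of M22 stimulation at EC80.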

Row | Compound | IC50 [nM]
1 | CN1Cc2cc(NC(=O)NC(C)(C)C)ccc2N(Cc2ccccc2)C1=O [Example 12, 1-(1-benzyl-3-methyl-2-oxo-1,2,3,4-tetrahydroquinazolin-6-yl)-3-(tert-butyl)urea] | 100 to 1000
2 | C[C@@H](c1cccc(C(F)(F)F)n1)n1c(=O)cnc2cc(NC(=O)CCC(C)(C)C)ccc21 [Example 300, (S)-4,4-dimethyl-N-(2-oxo-1-(1-(6-(trifluoromethyl)pyridin-2-yl)ethyl)-1,2-dihydroquinoxalin-6-yl)pentanamide] | 100 to 1000
3 | C[C@@H](c1cccc(OC2CCCC2)c1)n1c(=O)cnc2cc(NC(=O)NC(C)(C)C)ccc21 [Example 111, (S)-1-(tert-butyl)-3-(1-(1-(3-(cyclo-pentyloxy)phenyl)ethyl)-2-oxo-1,2-dihydroquinoxalin-6-yl)urea] | > 1000
4 | C[C@@H](c1cccc(CCOc2cn[nH]c2)c1)n1c(=O)cnc2cc(NC(=O)NC(C)(C)C)ccc21 [Example 119, (S)-1-(1-(1-(3-(2-((1H-pyrazol-4-yl)oxy)ethyl)phenyl)ethyl)-2-oxo-1,2-dihydroquinoxalin-6-yl)-3-(tert-butyl)urea] | > 1000
5 | CC(C)Oc1cccc([C@H](C)n2c(=O)cnc3cc(NC(=O)NC(C)(C)C)ccc32)c1 [Example 137, (S)-1-(tert-butyl)-3-(1-(1-(3-isopropoxyphenyl)eth-yl)-2-oxo-1,2-dihydroquinoxalin-6-yl)urea] | 100 to 1000
6 | CC(C)(C)NC(=O)Nc1ccc2c(c1)ncc(=O)n2Cc1cccc(OC(F)(F)F)c1 [Example 91, 1-(tert-butyl)-3-(2-oxo-1-(3-(trifluoro-methoxy)benzyl)-1,2-di-hydro-quinoxalin-6-yl)urea] | 100 to 1000
7 | C[C@@H](c1cccc(C2CC2)n1)n1c(=O)cnc2cc(NC(=O)NC(C)(C)C)ccc21 [Example 143, (S)-1-(tert-butyl)-3-(1-(1-(6-cyclopropylpyridin-2-yl)ethyl)-2-oxo-1,2-dihydroquinoxalin-6-yl)urea] | 100 to 1000
8 | CC(c1cc(F)cc(OC(F)(F)F)c1)n1c(=O)cnc2cc(NC(=O)NC(C)(C)C)ccc21 (centres unmarked) [Example 247, 1-(tert-butyl)-3-(1-(1-(3-fluoro-5-(tri-fluoromethoxy)phenyl)ethyl)-2-oxo-1,2-dihydro-quinoxalin-6-yl)urea] | 100 to 1000
9 | C[C@@H](c1cccc(Oc2ccccc2)c1)n1c(=O)cnc2cc(NC(=O)NC(C)(C)C)ccc21 [Example 114, (S)-1-(tert-butyl)-3-(2-oxo-1-(1-(3-phenoxyphenyl)ethyl)-1,2-dihydroquinoxalin-6-yl)urea] | 100 to 1000
10 | C[C@@H](c1cccc(Cl)c1)N1C(=O)N(C)Cc2cc(NC(=O)NC(C)(C)C)ccc21 [Example 46] | < 100
11 | C[C@H](c1cccc(C(F)(F)F)c1)N1C(=O)CCc2nc(NC(=O)NC(C)(C)C)ccc21 [Example 283, (R)-1-(tert-butyl)-3-(6-oxo-5-(1-(3-(trifluoromethyl)phenyl)ethyl)-5,6,7,8-tetrahydro-1,5-naphthyridin-2-yl)urea] | > 1000
12 | C[C@@H](c1cccc(Cl)c1Cl)n1c(=O)cnc2cc(NC(=O)NC(C)(C)C)ccc21 [Example 142, (S)-1-(tert-butyl)-3-(1-(1-(2,3-dichlorophenyl)ethyl)-2-oxo-1,2-dihydroquinoxalin-6-yl)urea] | 100 to 1000
13 | C[C@H]1Oc2cc(NC(=O)NC(C)(C)C)ccc2N([C@@H](C)c2cccc(C(F)(F)F)n2)C1=O [Example 186, 1-(tert-butyl)-3-((R)-2-methyl-3-oxo-4-((S)-1-(6-(trifluoromethyl)pyridin-2-yl)ethyl)-3,4-dihydro-2H-benzo[b][1,4]oxazin-7-yl)urea] | < 100
14 | C[C@@H](c1cccc(OCC2CCOCC2)c1)n1c(=O)cnc2cc(NC(=O)NC(C)(C)C)ccc21 [Example 117, (S)-1-(tert-butyl)-3-(2-oxo-1-(1-(3-((tetrahydro-2H-pyran-4-yl)methoxy)phenyl)eth-yl)-1,2-dihydroquinoxalin-6-yl)urea] | > 1000
15 | C[C@H]1Oc2cc(NC(=O)NC3(C)CC(F)(F)C3)ccc2N([C@@H](C)c2ccccc2)C1=O [Example 260, 1-(3,3-difluoro-1-methylcyclobutyl)-3-((R)-2-methyl-3-oxo-4-((S)-1-phen-ylethyl)-3,4-dihydro-2H-benzo[b][1,4]oxazin-7-yl)urea] | 100 to 1000
16 | CC(C)(C)NC(=O)Nc1ccc2c(c1)oc(=O)n2Cc1ccccc1 [Example 38, 1-(3-benzyl-2-oxo-2,3-dihydrobenzo[d]oxazol-6-yl)-3-(tert-butyl)urea] | > 1000
17 | CC(C)(C)NC(=O)Nc1ccc2c(c1C#N)CCC(=O)N2Cc1ccccc1 [Example 279, 1-(1-benzyl-5-cyano-2-oxo-1,2,3,4-tetrahydroquinolin-6-yl)-3-(tert-butyl)urea] | > 1000
18 | C[C@H]1Oc2cc(NC(=O)NC3(C)CCC3)ccc2N(Cc2cccc(C(F)(F)F)n2)C1=O [Example 226, 1-[(2R)-2-methyl-3-oxo-4-{[6-(trifluoromethyl)pyridin-2-yl]methyl}-2H-1,4-benzoxazin-7-yl]-3-(1-methylcyclobutyl)urea] | < 100

Row | Compound | IC50 [nM]
19 | C[C@H]1Oc2c(cc(C(F)(F)F)c(NC(=O)NC(C)(C)C)c2F)N(Cc2ccccc2)C1=O [Example 354, (R)-1-(4-benzyl-8-fluoro-2-methyl-3-oxo-6-(trifluoromethyl)-3,4-dihydro-2H-benzo[b][1,4]oxazin-7-yl)-3-(tert-butyl)urea] | 100 to 1000
20 | CC(C)(C)NC(=O)Nc1ccc2c(c1)CCC(=O)N2C1CCOc2ccccc21 (centres unmarked) [Example 298, 1-(tert-butyl)-3-(1-(chroman-4-yl)-2-oxo-1,2,3,4-tetrahydroquinolin-6-yl)urea] | > 1000
21 | CC(C)(C)NC(=O)Nc1ccc2c(c1)CCC(=O)N2Cc1ccccc1Cl [Example 8, 1-(tert-butyl)-3-(1-(2-chlorobenzyl)-2-oxo-1,2,3,4-tetrahydroquinolin-6-yl)urea] | 100 to 1000
22 | C[C@@H](c1cccc(Cl)c1)n1c(=O)cnc2cc(NC(=O)NC3(C)CCC3)ccc21 [Example 319, (S)-1-(1-(1-(3-chlorophenyl)ethyl)-2-oxo-1,2-dihydroquinoxalin-6-yl)-3-(1-methylcyclobutyl)urea] | 100 to 1000
23 | C[C@@H](c1cccc(OC(F)(F)F)c1)n1c(=O)cnc2cc(NC(=O)NC3(C)CCCC3)ccc21 [Example 203, (S)-1-(1-methylcyclopentyl)-3-(2-oxo-1-(1-(3-(trifluoromethoxy)phenyl)ethyl)-1,2-dihydroquinoxalin-6-yl)urea] | 100 to 1000
24 | CC(C)(C)NC(=O)Nc1ccc2c(c1)ncc(=O)n2Cc1cccc(Cl)c1 [Example 89, 1-(tert-butyl)-3-(1-(3-chlorobenzyl)-2-oxo-1,2-dihydroquinoxalin-6-yl)urea] | 100 to 1000
25 | CC(C)(C)NC(=O)Nc1cc2c(cc1Cl)N(Cc1ccccc1)C(=O)CC2 [Example 66, 1-(1-benzyl-7-chloro-2-oxo-3,4-dihydroquinolin-6-yl)-3-tert-butylurea] | 100 to 1000
26 | C[C@@H](c1ccccc1)N1C(=O)COc2cc(NC(=O)NC(C)(C)C)ccc21 [Example 35, (S)-1-(tert-butyl)-3-(3-oxo-4-(1-phenylethyl)-3,4-dihydro-2H-benzo[b][1,4]oxazin-7-yl)urea] | < 100
27 | C[C@H]1Oc2cc(NC(=O)NC(C)(C)C)c(C(F)(F)F)cc2N(Cc2ccccc2)C1=O [Example 330, (R)-1-(4-benzyl-2-methyl-3-oxo-6-(trifluoromethyl)-3,4-dihydro-2H-benzo[b][1,4]oxazin-7-yl)-3-(tert-butyl)urea] | < 100
28 | C[C@H]1Oc2cc(NC(=O)NC(C)(C)C)ccc2N(Cc2cccc(C(O)C(F)(F)F)c2)C1=O (stereo partly drawn) [Example 172, 1-(tert-butyl)-3-((2R)-2-methyl-3-oxo-4-(3-(2,2,2-trifluoro-1-hydroxy-ethyl)benzyl)-3,4-dihydro-2H-benzo [b][1,4]oxazin-7-yl)urea] | < 100
29 | CC(C)(C)NC(=O)Nc1ccc2c(c1Cl)CCC(=O)N2Cc1ccccc1 [Example 267, 1-(1-benzyl-5-chloro-2-oxo-1,2,3,4-tetrahydroquinolin-6-yl)-3-(tert-butyl)urea] | 100 to 1000
30 | C[C@H]1Oc2cc(NC(=O)NC(C)(C)C)ccc2N([C@@H](C)c2nccc(C(F)(F)F)n2)C1=O [Example 316, 1-(tert-butyl)-3-((R)-2-methyl-3-oxo-4-((S)-1-(4-(trifluoromethyl)pyrimidin-2-yl)ethyl)-3,4-dihydro-2H-benzo[b][1,4]oxazin-7-yl)urea] | > 1000
31 | CC(C)(C)NC(=O)Nc1ccc2c(c1)ncc(=O)n2Cc1cccc2c1CCCO2 [Example 97, 1-(tert-butyl)-3-(1-(chroman-5-ylmethyl)-2-oxo-1,2-di-hydro-quinoxalin-6-yl)urea] | 100 to 1000
32 | Cc1cccc([C@H](C)N2C(=O)CCc3cc(NC(=O)NC(C)(C)C)ccc32)c1 [Example 56, (S)-1-(tert-butyl)-3-(2-oxo-1-(1-(m-tolyl)ethyl)-1,2,3,4-tetrahydroquinolin-6-yl)urea] | < 100
33 | C[C@H](c1ccccc1)N1C(=O)COc2cc(NC(=O)NC(C)(C)C)ccc21 [Example 34, (R)-1-(tert-butyl)-3-(3-oxo-4-(1-phenylethyl)-3,4-dihydro-2H-benzo[b][1,4]oxazin-7-yl)urea] | 100 to 1000
34 | C[C@H](c1cccc(OCC(F)(F)F)c1)n1c(=O)cnc2cc(NC(=O)NC(C)(C)C)ccc21 [Example 314, (R)-1-(tert-butyl)-3-(2-oxo-1-(1-(3-(2,2,2-trifluoroethoxy)phenyl)ethyl)-1,2-dihydroquinoxalin-6-yl)urea] | 100 to 1000
35 | COCC1Cc2cc(NC(=O)NC(C)(C)C)ccc2N(Cc2ccccc2)C1=O (centres unmarked) [Example 11, 1-(1-benzyl-3-(methoxymethyl)-2-oxo-1,2,3,4-tetrahydroquinolin-6-yl)-3-(tert-butyl)urea] | 100 to 1000
